Columns and labels:
[1] = system: Gallesekretion narkotisierter Ratten; experiment: Bile secretion (choleresis) of anaesthetised rats after intraduodenal administration; assay type: in vivo, Ratte; conditions: for ED50: Rattus norvegicus, 0.5 h, Ratte i.d., dose that raises bile secretion (fluid volume, 30-min fraction) by maximally 50 %; for TQ [LD50/ED50]: LD50 (Maus, i.p.) / ED50 Gallesekretion (Ratte i.d.), for Lfd.Nr. 1 the cited p.o. LD50
Source text: (§1) In Tabelle II werden Untersuchungen der Gallesekretion (Cholerese) von narkotisierten Ratten nach intraduodenaler Applikation (ED50) und die letale Wirkung an der Maus (LD50) nach intraperitonealer Applikation von Vertretern der erfindungsgemäßen Verbindungen sowie der therapeutische Quotient (TQ = LD50/ED50) wiedergegeben.
(§2) Einfluß auf die Pankreas- und Gallesekretion der narkotisierten Ratte Versuchsdurchführung:
(§3) Männliche Sprague-Dawley-Ratten (250 - 300 ^g Körpergewicht) werden mit 1,2 g/kg Urethan i.m. narkotisiert. Dann wird die Bauchhöhle medial geöffnet, der Ductus choledochus kurz oberhalb seiner Mündung in das Duodenum sowie nahe der Leberpforte ligiert, beide Gangabschnitte werden leberwärts katheterisiert.
(§4) Da bei der Ratte alle Pankreaskanäle in den mittleren Abschnitt des Ductus choledochus munden,lassen sich auf diese Weise aus dem distalen (ligierten) Gangabschnitt das Pankreassekret und aus dem proximalen Teil des Ductus choledochus die Galle getrennt ableiten.
(§5) Die sezernierten Mengen an Pankreas- und Gallensaft werden in 30 min. Abständen während 2 Stunden vor bis 3 Stunden nach der intraduodenalen ([…]) Verabreichung der zu prüfenden Verbindungen (verabreichtes Flüssigkeitsvolumen 5 ml/kg) gemessen.
(§6) Die Körpertemperatur der Tiere wird mittels Heizkissen und Bestrahlung auf 36 - 38°C gehalten; die Temperaturkontrolle erfolgt rectal.
(§7) Auswertung: • Die Flüssigkeitsvolumina der 30-min.-Fraktionen nach der Substanzgabe werden jeweils auf die vor der Substanzapplikation ausgeschiedene Galle- bzw. Pankreassaftmenge (= 100 %, Mittelwert aus den beiden letzten Messungen) bezogen. Die maximale prozentuale Steigerung der Pankreas- bzw. Gallesekretion wird in Abhängigkeit von der Dosis dargestellt und daraus die ED50 durch Interpolation ermittelt.

Maus = experiment: Acute toxicity in mice, intraperitoneal; assay type: in vivo; conditions: i.p., female NMRI mice, 14 days observation
Source text: (§8) Die Toxizitätsuntersuchungen werden an weiblichen NMRI-Mäusen (Körpergewicht 22 - 26 g) durchgeführt. Die Tiere (5 Tiere pro Dosis) erhalten Futter und Wasser ad libitum. Verschiedene Dosierungen der Substanzen werden intraperitoneal verabreicht. Die Beobachtungsdauer beträgt 14 Tage. Die DL50, d.h. die Dosis, bei der 50 % der Tiere sterben, wird aus der Dosiswirkungskurve ermittelt.

[2] = system: Pankreassekretion narkotisierter Ratten; experiment: Pancreatic secretion of anaesthetised rats after intraduodenal administration; assay type: in vivo, Ratte; conditions: for ED50: Rattus norvegicus, 0.5 h, Ratte, i.d., dose that raises pancreatic secretion (fluid volume, 30-min fraction) by maximally 50 %; for TQ [LD50/ED50]: LD50 (Maus, i.p.) / ED50 Pankreassekretion (Ratte, i.d.), for Lfd.Nr. 1 the cited p.o. LD50
Source text: as §1, with “I” for “II”, “Pankreassekretion” for “Gallesekretion (Cholerese)”, “(^TQ” for “(TQ”
as §2, §3, §4, §5, §6, §7

[3] = Acute toxicity in mice, intraperitoneal; assay type: in vivo; conditions: mouse, in vivo, ip; Maus, i.p.; female NMRI mice, 14 days observation; read-out: Toxizität LD50
Source text: as §8

[4] = system: CCl4-lebergeschädigte Ratten; experiment: Antihepatotoxic effect: hexobarbital sleeping time of rats after CCl4 liver damage; assay type: in vivo, Ratte; conditions: for TQ [LD50/ED50]: LD50 (Maus i.p.) / ED50 antihepatotoxischer Effekt (Ratte, p.o.), for Lfd.Nr. 1 the cited p.o. LD50; for ED50: Rattus norvegicus, po, Ratte, p.o., dose that shortens hexobarbital narcosis of CCl4-liver-damaged rats by 50 %, sodium salts in aqueous solution, given 1 h before CCl4, read-out: Antihepatotoxischer Effekt ED50
Source text: In Tabelle III werden Untersuchungen der antihepatotoxischen Wirkung (ED50) erfindungsgemäßer Verbindungen nach oraler Applikation an wachen Ratten und die letale Wirkung nach intraperitonealer Applikation an der Maus (LD50) sowie der therapeutische Quotient (TQ = LD50/ED50) wiedergegeben.
Prüfung auf antihepatotoxische Wirkung
Einfluß auf die Hexobarbitalschlafdauer der Ratte nach CCl4-Leberschädi- gung
Versuchsdurchführung: • In Anlehnung an VOGEL et al. [Arzneim.Forsch. 25(1975)82] wird bei nüchternen weiblichen Sprague-Dawley-Ratten (190 *10 g Körpergewicht, 10 Tiere/Dosis pro Versuchsansatz) durch orale Verabreichung von Tetrachlorkohlenstoff ([…] CC14 in 2,5 ml/kg Olivenöl) ein Leberzellenschaden erzeugt, dessen Ausmaß an der Verlängerung der Hexobarbitalnatrium-Schlafdauer (50mg/ml/kg i.v.;Schwanzvene, Injektionsdauer 45 - 60 sec.) 47 Stunden nach der CC14-Gabe bestimmt wird. Die zu prüfenden Verbindungen werden eine Stunde vor der CC14-Gabe oral in einem Flüssigkeitsvolumen von 10 ml/kg verabreicht.
Auswertung: • Der antihepatotoxische Effekt der zu prüfenden Verbindungen (NatriumSalze in wäßriger Lösung) wird an der prozentualen Verkürzung der durch die CC14-Leberzellschädigung bedingten Schlafdauerverlängerung bei den behandelten Gruppen gegenüber der Schlafdauerverlängerung der CC14-Kontrollgruppe (= 100 %) gemessen. Die ED50 wurde durch Interpolation aus der Dosis-Wirkungskurve ermittelt.

SMILES | ED50 ([1]; intraduodenal) [mg/kg] | Toxizität LD50 (Maus) [mg/kg] | ED50 ([2]; intraduodenal) [mg/kg] | LD50 at 336 h [3] [mg/kg] | TQ [LD50/ED50] [1] | ED50 [1] [mg/kg] | TQ [LD50/ED50] [4] | ED50 [4] [mg/kg] | TQ [LD50/ED50] [2] | ED50 [2] [mg/kg] | TQ [LD50/ED50] ([2]; listed as 1)
C#CC1(N(CCCC(=O)O)C(=O)c2ccc(Cl)cc2)CCCCC1 [Beispiel 5] | 6 |  |  |  |  |  |  |  |  |  | 
CC(C)(C)CC(C)(C)N(CCCC(=O)O)C(=O)c1ccc(F)cc1 [Beispiel 16] |  | 400 | ~10 |  |  |  |  |  |  |  | 
CC(C)(C)N(CCCC(=O)O)C(=O)c1ccc(Cl)cc1 [Lfd. Nr. 2, N-p-Chlorbenzoyl-4-(tert.-butylamino)-buttersäure] |  |  |  | > 1000 | > 40 | 25 | > 10 | 100 |  |  | 
C#CC(C)(C)N(CCCC(=O)O)C(=O)c1ccc(Cl)cc1 [Lfd. Nr. 3, N-p-Chlorbenzoyl-4-[(2-methyl-3-butin-2-yl)-amino]-buttersäure] |  |  |  | > 1000 |  |  |  |  | »100 | 10 | 
C#CC(CC)(CC)N(CCCC(=O)O)C(=O)c1ccc(Cl)cc1 [Lfd. Nr. 4, N-p-Chlorbenzoyl-4-[(3-ethyl-1-pentin-3-yl)-amino]-buttersäure] |  |  |  | 780 | 43 | 18 | 7,8 | 100 | 156 | 5 | 
O=C(O)CCCN(C(=O)c1ccc(Cl)cc1)C12CC3CC(CC(C3)C1)C2 [Lfd. Nr. 6, N-p-Chlorbenzoyl-4-(1-adamantyl)-aminobuttersäure] |  |  |  | 1100 | 220 | 5 | 110 | 10 | ~220 | ~5 | 
CC(C)(C)CC(C)(C)N(CCCC(=O)O)C(=O)c1ccc(Cl)cc1 [Lfd. Nr. 7, N-p-Chlorbenzoyl-4-[(1.1.3.3-tetramethyl-butyl)-amino]-butter-säure] |  |  |  |  | 27 | 40 | < 3,6 | > 300 |  | 35 | 31
C#CC1(N(CCCC(=O)O)C(C)=O)CCCCC1 [Lfd. Nr. 8, N-Acetyl-4-[(1-ethinyl-cyclohexyl-1)-amino]-buttersäure] |  |  |  | 190 | 32 | 6 |  |  |  |  | 
CCC(C)(C)N(CCCC(=O)O)C(=O)c1ccc(Cl)cc1Cl [Lfd. Nr. 11, N-2,4-Dichlorbenzoyl-4-[(1.1-dimethyl-propyl)-amino]-butter-säure] |  |  |  | 200 |  |  |  |  | 200 | 1 | 
O=C(O)CCCN(Cc1ccccc1)C(=O)c1ccc(Cl)cc1 [Lfd. Nr. 15, N-p-Chlorbenzoyl-4-benzylamino-buttersäure] |  |  |  | 150 |  |  | 18,8 | 8 | 60 | 2.5 | 
O=C(O)CCCN(C(=O)c1ccc(Cl)cc1)C1CCCCCCC1 [Lfd. Nr. 18, N-p-Chlorbenzoyl-4-cyclooctylamino-buttersäure] |  |  |  | 350 |  |  |  |  | 233 | 1.5 | 

From patent EP0002836A1, “Acylhydrocarbylaminoalcanecarboxylic acids, their preparation and their use, and pharmaceutical compositions containing them” (Byk Gulden Lomberg Chemische Fabrik GmbH, priority 1977, dated 1979)
